From patent publication US6340670B1, “Acetal benzylmaltosides as inhibitors of smooth muscle cell proliferation” (American Home Products Corporation, priority 1998, dated 2002)
pIC50: −log10 of the molar value. Read-outs that look alike come from different tables or passages of the source.

Legend:
[1] = tested on: Porcine Smooth Muscle Cell; assay: Effects of Compounds on Cell Proliferation Using 3H Thymidine Incorporation; assay type: cell-based; conditions: serum/growth factor stimulated cells, 24-36 h incubation, read-out: Porcine Smooth Muscle Cell Antiproliferation IC50
Procedure, shortened: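 Early-passage (3-7) sub-confluent smooth muscle cells, serum-starved 24-48 h, were stimulated with growth factor or serum and treated with compound (1 to 100 μM, from 50% ethanol stock) for 24-36 h at 37° C. Proliferation by ^3H-thymidine incorporation into TCA-insoluble material, triplicate, relative to maximally stimulated cells (100%); given as IC50 or % inhibition.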

Row | Structure (SMILES) | pIC50 ([1]; Sus scrofa) | melting point | pIC50 [1]
1 | O=C(OCC1OC(OCc2ccc(Cl)c([N+](=O)[O-])c2)C(O)C(O)C1OC1OC2COC(c3ccccc3)OC2C(O)C1O)c1cccnc1 (centres unmarked) [Example 32, Nicotinic acid 6-(4-chloro-3-nitro-benzyloxy)-3-(7,8-dihydroxy-2-phenyl-hexahydro-pyrano[3,2-d][1,3]dioxin-6-yloxy)-4,5-dihydroxy-tetrahydro-pyran-2-ylmethyl ester] | 6.39 | > 105 °C (dec.) | 
2 | COc1ccc(CC(=O)OCC2OC(OCc3ccc(Cl)c(NC(C)=O)c3)C(OC(C)=O)C(OC(C)=O)C2OC2OC3COC(c4ccccc4)OC3C(OC(C)=O)C2OC(C)=O)cc1OC (centres unmarked) [Example 53, (3,4-Dimethoxy-phenyl)-acetic acid 4,5-diacetoxy-6-(3-acetylamino-4-chloro-benzyloxy)-3-(7,8-diacetoxy-2-phenyl-hexahydro-pyrano[3,2-d][1,3]dioxin-6-yloxy)-tetrahydro-pyran-2-ylmethyl ester] | 6.58 | > 98 °C (dec.) | 
3 | CC(=O)Nc1cc(COC2OC(COC(=O)c3ccc(Cl)cc3)C(OC3OC4COC(c5ccccc5)OC4C(O)C3O)C(O)C2O)ccc1Cl (centres unmarked) [Example 36, 4-Chloro-benzoic acid 6-(3-acetylamino-4-chloro-benzyloxy)-3-(7,8-dihydroxy-2-phenyl-hexahydro-pyrano[3,2-d][1,3]dioxin-6-yloxy)-4,5-dihydroxy-tetrahydro-pyran-2-ylmethyl ester] | 7.05 | > 113 °C (dec.) | 
4 | COc1ccc(CC(=O)OCC2OC(OCc3ccc(Cl)c(NC(C)=O)c3)C(O)C(O)C2OC2OC3COC(c4ccccc4)OC3C(O)C2O)cc1OC (centres unmarked) [Example 52, (3,4-Dimethoxy-phenyl)-acetic acid 6-(3-acetylamino-4-chloro-benzyloxy)-3-(7,8-dihydroxy-2-phenyl-hexahydro-pyrano[3,2-d][1,3]dioxin-6-yloxy)-4,5-dihydroxy-tetrahydro-pyran-2-ylmethyl ester] | 7.32 | > 116 °C (dec.) | 
5 | CC(=O)Nc1cc(COC2OC(COC(=O)C(c3ccccc3)c3ccccc3)C(OC3OC4COC(c5ccccc5)OC4C(OC(C)=O)C3OC(C)=O)C(OC(C)=O)C2OC(C)=O)ccc1Cl (centres unmarked) [Example 51, Diphenyl-acetic acid 4,5-diacetoxy-6-(3-acetylamino-4-chloro-benzyloxy)-3-(7,8-diacetoxy-2-phenyl-hexahydro-pyrano[3,2-d][1,3]dioxin-6-yloxy)-tetrahydro-pyran-2-ylmethyl ester] | 6.45 | > 99 °C (dec.) | 
6 | CC(=O)Nc1cc(COC2OC(COC(=O)c3cccnc3)C(OC3OC4COC(c5ccccc5)OC4C(OC(C)=O)C3OC(C)=O)C(OC(C)=O)C2OC(C)=O)ccc1Cl (centres unmarked) [Example 55, Nicotinic acid 4,5-diacetoxy-6-(3-acetylamino-4-chloro-benzyloxy)-3-(7,8-diacetoxy-2-phenyl-hexahydro-pyrano[3,2-d][1,3]dioxin-6-yloxy)-tetrahydro-pyran-2-ylmethyl ester] | 6.52 | > 112 °C (dec.) | 
7 | COc1ccc(C(=O)OCC2OC(OCc3ccc(Cl)c(NC(C)=O)c3)C(OC(C)=O)C(OC(C)=O)C2OC2OC3COC(c4ccccc4)OC3C(OC(C)=O)C2OC(C)=O)cc1 (centres unmarked) [Example 35, 4-Methoxy-benzoic acid 4,5-diacetoxy-6-(3-acetylamino-4-chloro-benzyloxy)-3-(7,8-diacetoxy-2-phenyl-hexahydro-pyrano[3,2-d][1,3]dioxin-6-yloxy)-tetrahydro-pyran-2-ylmethyl ester] | 6.07 | > 110 °C (dec.) | 
8 | COc1ccc(C(=O)OCC2OC(OCc3ccc(Cl)c(NC(C)=O)c3)C(O)C(O)C2OC2OC3COC(c4ccccc4)OC3C(O)C2O)cc1 (centres unmarked) [Example 34, 4-Methoxy-benzoic acid 6-(3-acetylamino-4-chloro-benzyloxy)-3-(7,8-dihydroxy-2-phenyl-hexahydro-pyrano[3,2-d][1,3]dioxin-6-yloxy)-4,5-dihydroxy-tetrahydro-pyran-2-ylmethyl ester] | 7.21 | > 117 °C (dec.) | 
9 | CC(=O)Nc1cc(COC2OC(COC(=O)c3ccc(Cl)cc3)C(OC3OC4COC(c5ccccc5)OC4C(OC(C)=O)C3OC(C)=O)C(OC(C)=O)C2OC(C)=O)ccc1Cl (centres unmarked) [Example 37, 4-Chloro-benzoic acid 4,5-diacetoxy-6-(3-acetylamino-4-chloro-benzyloxy)-3-(7,8-diacetoxy-2-phenyl-hexahydro-pyrano[3,2-d][1,3]dioxin-6-yloxy)-tetrahydro-pyran-2-ylmethyl ester] | 6.23 | 114 to 115 °C | 
10 | CC(=O)OC1C(OC2C(COC(=O)c3ccccc3)OC(OCc3ccc(Cl)c([N+](=O)[O-])c3)C(OC(C)=O)C2OC(C)=O)OC2COC(c3ccccc3)OC2C1OC(C)=O [Example 31, (R)-(4-Chloro-3-nitrophenyl)methyl-2,3-di-O-acetyl-6-O-benzoyl-4-O-[2,3-di-O-acetyl-4,6-O-(phenylmethylene)-α-D-glucopyranosyl]-β-D-glucopyranoside] |  |  | 6.42
11 | CC(=O)Nc1cc(COC2OC(COC(=O)C(c3ccccc3)c3ccccc3)C(OC3OC4COC(c5ccccc5)OC4C(O)C3O)C(O)C2O)ccc1Cl (centres unmarked) [Example 50, Diphenyl-acetic acid 6-(3-acetylamino-4-chloro-benzyloxy)-3-(7,8-dihydroxy-2-phenyl-hexahydro-pyrano[3,2-d][1,3]dioxin-6-yloxy)-4,5-dihydroxy-tetrahydro-pyran-2-ylmethyl ester] | 7.08 | > 106 °C (dec.) | 
12 | CC(=O)Nc1cc(COC2OC(COC(C)=O)C(OC3OC4COC(c5ccccc5)OC4C(OC(C)=O)C3OC(C)=O)C(OC(C)=O)C2OC(C)=O)ccc1Cl [Example 25, N-{5-[(4′,6′-O-Benzylidene-2,2′,3,3′,6-penta-O-acetyl-β-D-maltosyl-oxy)-methyl]-2-chloro-phenyl}-acetamide] |  |  | 6.15
13 | CC(=O)Nc1cc(CO[C@@H]2O[C@H](COC(=O)CCc3ccccc3)[C@@H](O[C@H]3O[C@@H]4COC(c5ccccc5)O[C@H]4[C@H](O)[C@H]3O)[C@H](O)[C@H]2O)ccc1Cl (stereo partly drawn) [Example 48, N-{5-[(4′,6′-O-Benzylidene-6-O-phenyl-ethyl-carboxyl-β-D-maltosyl)-oxy-methyl]-2-chloro-phenyl}-acetamide] |  |  | 8.15
